The source of these data is EP4120837B1, “INHIBITORS OF CYTOKININ OXIDASE DERIVED FROM 2-(3-PHENYLUREIDO)BENZAMIDE, USE THEREOF AND PREPARATIONS CONTAINING THESE DERIVATIVES” (Univerzita Palackého v Olomouci, priority 2020, dated 2021).

Each structure is given as a SMILES string. Values joined by “and” are separate entries in the source; they are usually repeats but may differ in a detail not shown here. Equal entries are not always repeated. Where two headings read alike, the source gives them in different places.

One experiment concerns the target T1, ZmCKX1 (Zea mays, UniProt Q9T0N8).
T1 construct: made in house; host or cells: Yarrowia lipolytica
Put plainly: ZmCKX1 inhibition, PMS/MTT assay. Format: biochemical, maize. The protocol: The IC50 (concentration of a substance that causes 50% inhibition of the enzyme activity) was measured by PMS/MTT assay [phenazine methosulphate/3-(4,5-dimethylthiazol-2-yl)-2,5-diphenyltetrazolium bromide]. The assay was performed in 96-well microtiter plates. Each well contained a reaction mixture with a final concentration of: 0.1 M KH2PO4, pH 7.4, 1 mM MTT, 0.2 mM PMS, tested substance in a concentration range of 0.1 nM - 1 µM and 10 µM N^6-isopentenyladenine (iP) as a substrate. To this reaction mixture 100 µL of medium containing the active enzyme ZmCKX1 was added. The enzyme was produced by the yeast Yarrowia lipolytica and isolated according to the protocol (Kopečný D. et al., 2005, […] 87:1011-1022). The plates were incubated for 30 min at 37 °C and the enzymatic reaction was stopped by the addition of 25 µL of 35% acetic acid. Then, the absorbance at 578 nm was measured on a spectrophotometer, and the absorbance of the sample without the substrate was substracted as a reference value. The IC50 value was determined from the concentration-dependent curves in GraphPad Prism software. The values shown in Table 1 are the average of at least two measurements each performed in three repetitions. […] The substance 3,5DCl-Ph-U is 1-(3,5-dichlorophenyl)-3-phenylurea, which we have been prepared to compare its inhibitory activity with the compounds presented in the present invention. Addition of the amide group to the unsubstituted phenyl ring of this substance gives the compound 2AD-3,5DC, which has 42-fold better inhibitory activity with the ZmCKX1 enzyme than 3,5DCl-Ph-U. F-INCYDE ((2-fluoro-9H-purin-6-yl)-(3-methoxyphenyl)amine), CPPU (1-(2-chloropyridin-4-yl)-3-phenylurea), and DCPPU (1-(2,6-dichloropyridin-4-yl)-3-phenylurea) are substances known in the prior art.

Experiment [1] concerns Arabidopsis thaliana. In words: Foliar application, seed yield of Arabidopsis under optimal conditions. It counts as in vivo. The protocol: In our experiment, young Arabidopsis thaliana plants were grown in small pots in soil and they were sprayed with a 0.01 µM compound 24 (aq solution) in phase of 4 true leaves (about 14-20 days after sowing). Control plants were sprayed with an aqueous solution of DMSO (c = 0.01% (v/v)) and silwet (c = 0.001% (v/v)). Both treated (n = 25) and control plants (n = 25) were further grown under optimal conditions until their natural death. Subsequently, seeds from all plants were harvested and the yield was evaluated (Table 2). […] This means an increase in total seed yield of 21 %.
This means an increase in total seed yield of 17 %. Table 2. Foliar application of 24 increases seed yield of Arabidopsis thaliana

The subject of experiment [2] is Arabidopsis thaliana. Put plainly: Foliar application, life span and seed yield of Arabidopsis under drought stress. It counts as in vivo. As to conditions: 0.01 µM foliar spray, reduced watering. The protocol:
Young Arabidopsis thaliana plants grown in small pots in soil were sprayed with a 0.01 µM aqueous solution of substance 24 in phase of four true leaves (within 14-20 days after sowing). Control plants were sprayed with an aqueous solution of DMSO (c = 0.01% (v/v)) and silwet (c = 0.001% (v/v)). Control plants were further divided into watered plants and those with reduced watering (drought stressed). […] All plants were grown until the stage of their natural death. Control watered plants lived for an average of 85 days before dying spontaneously. Their seed yield in average was 141 (± 22) mg. Control plants with reduced watering lived only 61 days on average and the average yield was 95 (± 14) mg. Plants treated with substance 24 and with reduced watering lived for an average of 75 days and their average seed yield was 117 (± 16) mg. […] Table 3. Foliar application with compound 24 reduces Arabidopsis thaliana seed yield losses

A further experiment has as its system barley. Put plainly: Field trial, seed yield of barley. It counts as in vivo. The conditions noted are these: for Yield (%): control = 100 %. The protocol: The effect of compound 24 on seed yield of barley and its phenotype was investigated in a field trials. All field experiments were performed according to Good agricultural practices, ie. six areas of 10 m^2 were used for one variant. Furthermore, the crop was not treated with any other growth regulator (substance 24 only) or fungicide. Compound 24 was applied to seeds at a concentration of 10 µM before sowing. In 2016 barley seeds treated by this way were grown in the field and the yield of these plants was compared with the untreated control (Table 4).
In 2017, compound 24 was applied to barley leaves at a concentration of 5 µM (in a volume of 200 L per hectare) in two different growth phases - BBCH 21-23 and BBCH 51. […] Table 4. Application of substance 24 increases the seed yield of barley in field conditions

For another experiment, the system named is winter rapeseed. In words: Field trial, seed yield of winter rapeseed. It counts as in vivo. The conditions noted are these: 1 µM foliar application; for Yield (%): 300 L per hectare, control = 100 %; for weight of one thousand seeds: control 5.38 g. The protocol: In 2018, the effect of foliar application of substance 24 (concentration 1 µM in a volume of 300 L per hectare) on the yield of winter rapeseed was investigated in field conditions. The field trials were again performed according to Good Agricultural Practice. Substance 24 was applied to plants in two different growth phases - BBCH 30 and BBCH 33-35. […] The weight of one thousand seeds in the treated plants was 5.6 g (BBCH 30) and 5.8 g (BBCH 33-35). This phenomenon also contributed to the increase in total seed yield. Table 5. Application of substance 24 increases the seed yield of winter rapeseed in field conditions

The subject of another experiment is wheat. Put plainly: Field trial, seed yield of wheat. It counts as in vivo. The conditions noted are these: for Yield (%): control = 100 %. The protocol:
Example 19. The application of compound 24 increases the seed yield of wheat in field conditions In 2017, the effect of the application of substance 24 on wheat yield in field conditions was investigated. The substance was again applied either to wheat seeds before sowing (= seed dressing with substance 24 at a concentration of 50 µM) or to leaves (= spraying with substance 24 at a concentration of 5 µM) in two different growth phases - BBCH 25 and BBCH 51. All field experiments were performed according to Good Agricultural Practice. […] Table 6. Application of compound 24 increases seed yield of wheat in field conditions

Setting [3] is: 10 µM iP as substrate, pH 7.4, 30 min at 37 °C, average of at least two measurements, read-out: IC50 (µM) ZmCKX1.
[4] abbreviates: 10 µM seed application before sowing, 2016.
The mark [5] stands for this setting: read-out: IC50 (µM) ZmCKX1, 10 µM iP as substrate, pH 7.4, 30 min at 37 °C, average of at least two measurements.

T1 sequence (Q9T0N8 19-534): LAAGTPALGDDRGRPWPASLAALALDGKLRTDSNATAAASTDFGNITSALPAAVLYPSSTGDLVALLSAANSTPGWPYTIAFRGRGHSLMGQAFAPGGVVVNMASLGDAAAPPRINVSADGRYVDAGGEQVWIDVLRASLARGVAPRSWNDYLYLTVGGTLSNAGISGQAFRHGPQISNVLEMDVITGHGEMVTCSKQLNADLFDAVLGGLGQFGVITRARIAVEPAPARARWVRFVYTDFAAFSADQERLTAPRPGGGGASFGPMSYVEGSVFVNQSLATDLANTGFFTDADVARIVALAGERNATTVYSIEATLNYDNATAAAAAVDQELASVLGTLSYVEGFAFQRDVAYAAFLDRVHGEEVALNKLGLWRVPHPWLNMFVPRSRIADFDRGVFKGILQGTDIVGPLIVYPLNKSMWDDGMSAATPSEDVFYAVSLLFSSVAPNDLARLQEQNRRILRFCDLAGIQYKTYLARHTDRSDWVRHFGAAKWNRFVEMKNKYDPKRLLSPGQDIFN

On ZmCKX1, `O=C(Nc1ccccc1)Nc1ccnc(Cl)c1` [CPPU, 1-(2-chloro-4-pyridyl)-3-phenylurea, reference compound] registered an IC50 of 18 µM.

Take `COc1cc(Cl)cc(NC(=O)Nc2cc(F)ccc2C(N)=O)c1` [compound 14, 2-[3-(3-chloro-5-methoxyphenyl)ureido]-4-fluorobenzamide]: at ZmCKX1 (setting [3]), the IC50 turned out to be 0.028 µM.

Consider `Cc1cc(Cl)cc(NC(=O)Nc2ccccc2C(N)=O)c1` [compound 10, 2-[3-(3-chloro-5-methylphenyl)ureido]benzamide], for which the IC50 on ZmCKX1 (setting [3]) amounted to 0.07 µM.

`NNC(=O)c1ccc(Br)cc1NC(=O)Nc1cc(Cl)cc(Cl)c1` [compound 45, 1-(5-Bromo-2-hydrazinocarbonylphenyl)-3-(3,5-dichlorophenyl)-urea] had an IC50 at ZmCKX1 of 0.02 µM.

Take `NC(=O)c1ccccc1NC(=O)Nc1cccc(OC(F)(F)F)c1` [compound 4]: the IC50 at ZmCKX1 (setting [3]) came to 0.21 µM.

Regarding `COc1ccc(C(N)=O)c(NC(=O)Nc2cc(Cl)cc(Cl)c2)c1` [compound 24, 2-[3-(3,5-Dichlorophenyl)ureido]-4-methoxybenzamide], the IC50 at ZmCKX1 (setting [3]) amounted to 0.001 µM. Besides, the “Yield (mg), total seed yield per plant” value in the experiment with Arabidopsis thaliana [1] (0.01 µM aq solution sprayed in phase of 4 true leaves, n = 25, experiment and its repeat) was 148 (± 17) mg and 135 (± 13) mg and 148 ± 17 mg and 135 ± 13 mg. In addition, the seeds per silique with Arabidopsis thaliana [1] (0.01 µM foliar spray, average) was 50 (± 5) and 52 (± 7). For the same molecule, the “Yield (%)” value is 121% and 117% in the experiment on Arabidopsis thaliana [1] (0.01 µM foliar spray, control = 100 %); 83% in the experiment on Arabidopsis thaliana [2] (watered control = 100 %); 106.3% with barley (5 µM foliar application, 200 L per hectare, BBCH 21-23, 2017); 106.8% with barley (5 µM foliar application, 200 L per hectare, BBCH 51, 2017); 105.3% in the experiment on barley (setting [4]); 106.2% in the experiment on winter rapeseed (BBCH 30, 2018). Also, the “Yield (%)” value in the experiment on winter rapeseed (BBCH 33-35, 2018) was 108.8%; in the experiment with wheat (5 µM foliar application, BBCH 25, 2017), 105.9%; in the experiment with wheat (5 µM foliar application, BBCH 51, 2017) it was 105.0%; with wheat (50 µM seed dressing before sowing, 2017), 104.0%. Also, the results for the “Yield (mg), average seed yield” value in the experiment on Arabidopsis thaliana [2] and in the experiment with Arabidopsis thaliana [2] (listed as substance 24) were 117 ± 16 mg and 117 (± 16) mg, respectively. Besides, the “life span (lived for an average of)” value with Arabidopsis thaliana [2] was 75 days. In addition, in the experiment with barley (setting [4]), the “number of tillers, more than the control plants” value came to 14%. The “weight of one thousand seeds” value in the experiment with winter rapeseed (BBCH 30) turned out to be 5.6 g; in the experiment on winter rapeseed (BBCH 33-35) it was 5.8 g. Besides, the “tillers, more than the control plants” value in the experiment with wheat (treated plants, mode of application not specified, 2017) was “about 7%”.

For the molecule `CNC(=O)c1ccc(Br)cc1NC(=O)Nc1cc(Cl)cc(Cl)c1` [compound 32, 4-bromo-2-[3-(3,5-dichlorophenyl)ureido]-N-methylbenzamide], the IC50 on ZmCKX1 (setting [5]) came to 0.01 µM.

Molecule `NCCNC(=O)c1ccc(Br)cc1NC(=O)Nc1cc(Cl)cc(Cl)c1` [compound 55, N-(2-Aminoethyl)-4-bromo-2-[3-(3,5-dichlorophenyl)ureido]benzamide] came in with a 50% inhibitory concentration (IC50) against ZmCKX1 of 0.01 µM.

Turning to `O=C(Nc1ccccc1)Nc1cc(Cl)nc(Cl)c1` [DCPPU, 1-(2,6-dichloropyridin-4-yl)-3-phenylurea, reference compound], the IC50 at ZmCKX1 (setting [3]) is 4.5 µM.

For `NCCNC(=O)c1ccc(Br)cc1NC(=O)Nc1cccc(Cl)c1` [compound 54, 4-bromo-2-[3-(3-chlorophenyl)ureido]-N-(2-amino-ethyl)benzamide], the IC50 on ZmCKX1 (setting [5]) amounted to 0.035 µM.

Turning to `CCCNC(=O)c1ccccc1NC(=O)Nc1cc(Cl)cc(Cl)c1` [compound 41, 2-[3-(3,5-dichlorophenyl)ureido]-N-propylbenzamide], the IC50 at ZmCKX1 (setting [3]) is 0.03 µM.

For the molecule `NC(=O)c1ccccc1NC(=O)Nc1cccc(F)c1` [compound 1, 2-[3-(3-fluorophenyl)ureido]benzamide], the IC50 on ZmCKX1 (setting [3]) is 0.45 µM.

`NC(=O)c1ccc(F)cc1NC(=O)Nc1cccc(Cl)c1` [compound 12, 2-[3-(3-chlorophenyl)ureido]-4-fluorobenzamide] registered an IC50 at ZmCKX1 of 0.09 µM.

Consider `NNC(=O)c1ccccc1NC(=O)Nc1cc(Cl)cc(Cl)c1` [compound 44, 1-(3,5-dichlorophenyl)-3-(2-hydrazinocarbonylphenyl)-urea], for which the IC50 on ZmCKX1 (setting [3]) was 0.074 µM.

Turning to `NC(=O)c1ccccc1NC(=O)Nc1cc(F)cc(F)c1` [compound 5, 2-[3-(3,5-difluorophenyl)ureido]benzamide], the IC50 at ZmCKX1 (setting [3]) is 0.16 µM.

At ZmCKX1, `NC(=O)c1ccccc1NC(=O)Nc1cc(Cl)cc(OC(F)(F)F)c1` [compound 11, 2-[3-(3-Chloro-5-trifluoromethoxyphenyl)ureido]benzamide] gave an IC50 of 0.12 µM.

As for `NC(=O)c1ccc(Br)cc1NC(=O)Nc1cccc(Cl)c1` [compound 18, 4-bromo-2-[3-(3-chlorophenyl)ureido]benzamide], the 50% inhibitory concentration (IC50) on ZmCKX1 (setting [5]) was determined as 0.011 µM.

`COc1cccc(Nc2nc(F)nc3[nH]cnc23)c1` [F-INCYDE, (2-fluoro-9H-purin-6-yl)-(3-methoxyphenyl)amine, reference compound]: the IC50 at ZmCKX1 (setting [3]) turned out to be 1 µM.

For `COc1ccc(C(N)=O)c(NC(=O)Nc2cc(Cl)cc(Br)c2)c1` [compound 25, 2-[3-(3-bromo-5-chlorophenyl)ureido]-4-methoxybenzamide], the IC50 against ZmCKX1 came to 0.001 µM.

In general, IC50 refers to the point on the concentration scale where inhibition reaches its midpoint.
